Measurements from patent US7329681B2, “Inhibitors of IMPDH enzyme” (Vertex Pharmaceuticals Incorporated, priority 1996, dated 2008).

Target: IMPDH human type II (Homo sapiens, UniProt P12268)
Test: IMPDH activity inhibition assay (spectrophotometric, NADH formation at 340 nm)
Assay type: biochemical
Details: not given
Description: We have measured the inhibition constants of each compound against IMPDH using an adaptation of the method first reported by […]. Moyed, and […]. Biol. Chem., 226, p. 339 (1957)]. We measured the inhibition constants of the compounds listed in Table III utilizing the following protocol: IMP dehydrogenase activity was assayed following an adaptation of the method first reported by […]. Moyed, H. S. and […]. Biol. Chem. 226, 339]. Enzyme activity was measured spectrophotometrically, by monitoring the increase in absorbance at 340 nm due to the formation of NADH (ε340 is 6220 M^-1 cm^-1). The reaction mixture contained 0.1 M Tris pH 8.0, 0.1 M KCl, 3 mM EDTA, 2 mM DTT, […] and enzyme (IMPDH human type II) at a concentration of 15 to 50 nM. This solution is incubated at 37° C. for 10 minutes. The reaction is started by adding NAD to a final concentration of 0.1 M and the initial rate is measured by following the linear increase in absorbance at 340 nm for 10 minutes. For reading in a standard spectrophotometer (path length 1 cm) the final volume in the cuvette is 1.0 ml. The assay has also been adapted to a 96 well microtiter plate format; in this case the concentrations of all the reagents remain the same and the final volume is decreased to 200 μl. For the analysis of inhibitors, the compound in question is dissolved in DMSO to a final concentration of 20 mM and added to the initial assay mixture for preincubation with the enzyme at a final volume of 2-5% (v/v). The reaction is started by the addition of NAD, and the initial rates measured as above. […] The designation “ND” is used where a given compound was not tested.

**Q.** Which Ki does the source give for `COC(=O)c1ccc(OC(=O)NCc2cccc(NC(=O)Nc3ccc(-c4cnco4)c(OC)c3)c2)cc1` [Compound 123] here?
**A.** 0.01 to 50 nM

**Q.** With `COc1cc(NC(=O)Nc2cccc(CNC(=O)Oc3ccccc3)c2)ccc1-c1cnco1` [Compound 119] as the compound, how does the Ki read?
**A.** 0.01 to 50 nM

**Q.** Which Ki does the source give for `C=CCOC(=O)NCc1cccc(NC(=O)Nc2ccc(-c3cnco3)c(OC)c2)c1` [Compound 125] here?
**A.** 0.01 to 50 nM

Same assay, conditions: IMPDH human type II, 15 to 50 nM enzyme, 37° C., tight-binding fit (Henderson); read-out: Ki

**Q.** `COc1cc(NC(=O)Nc2cccc(CNC(=O)O[C@H]3CCOC3)c2)ccc1-c1cnco1` [Compound 120] was tested. Which Ki did it give?
**A.** 0.01 to 50 nM

**Q.** With `NC(=O)c1cccc(NC(=O)Nc2ccc(-c3cnco3)cc2)c1` [Compound 51] as the compound, how does the Ki read?
**A.** > 10000 nM

**Q.** With `COc1ccc(NC(=O)Nc2cccc(C)c2)cc1OC` [Compound 28] as the compound, how does the Ki read?
**A.** 1000 to 10000 nM

**Q.** With `O=C(Nc1ccc(-c2cnco2)cc1)Nc1ccc([N+](=O)[O-])c(C(F)(F)F)c1` [Compound 41] as the compound, how does the Ki read?
**A.** 1000 to 10000 nM

**Q.** How did the Ki turn out when `COc1cc(NC(=O)Nc2cccc(CNC(=O)OCC3CCCCN3C(=O)OC(C)(C)C)c2)ccc1-c1cnco1` (stereo not shown) [Compound 152] was run?
**A.** 51 to 1000 nM

**Q.** Which Ki does the source give for `COc1cc(NC(=O)Nc2cccc(CNC(=O)OC3CCCCO3)c2)ccc1-c1cnco1` (racemic) [Compound 142] here?
**A.** 0.01 to 50 nM

**Q.** For `COc1cc(NC(=O)Nc2cccc(NC(C)=O)c2)ccc1-c1cnco1` [Compound 84], which Ki is on record?
**A.** 51 to 1000 nM

**Q.** How did the Ki turn out when `COc1cc(NC(=O)Nc2cccc(N(C)C(C)=O)c2)ccc1-c1cnco1` [Compound 107] was run?
**A.** 0.01 to 50 nM

**Q.** `CC1(c2cccc(NC(=O)Nc3ccc(-c4cnco4)cc3)c2)OCCO1` [Compound 50] was tested. Which Ki did it give?
**A.** > 10000 nM

**Q.** How did the Ki turn out when `Nc1cccc(NC(=O)Nc2ccc(-c3cnco3)cc2)c1` [Compound 24] was run?
**A.** 51 to 1000 nM

**Q.** How did the Ki turn out when `COc1cc(NC(=O)Nc2cccc(CNC(=O)OCCCS(C)(=O)=O)c2)ccc1-c1cnco1` [Compound 157] was run?
**A.** 51 to 1000 nM

**Q.** Which Ki does the source give for `COc1cc(NC(=O)Nc2cccc(CNC(=O)OCCCCO)c2)ccc1-c1cnco1` [Compound 140] here?
**A.** 0.01 to 50 nM

**Q.** `COc1cc(NC(=O)Nc2cccc(NC(=O)Nc3ccccc3)c2)ccc1-c1cnco1` [Compound 112] was tested. Which Ki did it give?
**A.** 51 to 1000 nM

**Q.** `COc1cc(NC(=O)Nc2cccc(CNC(=O)OCC3CCCNC3)c2)ccc1-c1cnco1` (stereo not shown) [Compound 158] was tested. Which Ki did it give?
**A.** 51 to 1000 nM

**Q.** For `COc1cc(NC(=O)Nc2cccc(CN(C)C(=O)OC(C)(C)C)c2)ccc1-c1cnco1` [Compound 117], which Ki is on record?
**A.** 51 to 1000 nM

**Q.** `CSc1cccc(NC(=O)Nc2ccc(-c3cnco3)cc2)c1` [Compound 6] was tested. Which Ki did it give?
**A.** 1000 to 10000 nM

**Q.** `COc1cc(NC(=O)Nc2cccc(CNC(=O)OC3CCCNC3)c2)ccc1-c1cnco1` (stereo not shown) [Compound 153] was tested. Which Ki did it give?
**A.** 0.01 to 50 nM

**Q.** How did the Ki turn out when `CSc1cc(NC(=O)Nc2cccc(CNC(=O)O[C@H]3CCOC3)c2)ccc1C#N` [Compound 165] was run?
**A.** 0.01 to 50 nM

**Q.** For `O=C(Nc1ccc(-c2cnco2)cc1)Nc1cccc(S(=O)(=O)NC2CCCCC2)c1` [Compound 80], which Ki is on record?
**A.** 1000 to 10000 nM

**Q.** How did the Ki turn out when `COc1cc(NC(=O)Nc2cccc(NC(=O)OCc3ccccc3)c2)ccc1-c1cnco1` [Compound 83] was run?
**A.** 51 to 1000 nM

**Q.** `CC(=O)N(C)c1cccc(NC(=O)Nc2ccc(C#N)c(S(C)(=O)=O)c2)c1` [Compound 166] was tested. Which Ki did it give?
**A.** > 10000 nM

**Q.** For `COc1cc(NC(=O)Nc2cccc(CNC(=O)OC3C(=O)OCC3(C)C)c2)ccc1-c1cnco1` (stereo not shown) [Compound 144], which Ki is on record?
**A.** 51 to 1000 nM

**Q.** Which Ki does the source give for `COC(=O)Nc1cccc(NC(=O)Nc2ccc(-c3cnco3)c(Cl)c2)c1` [Compound 71] here?
**A.** 1000 to 10000 nM

**Q.** Which Ki does the source give for `O=C(Nc1ccc(-c2cnco2)cc1)Nc1cccc(Br)c1` [Compound 7] here?
**A.** 51 to 1000 nM

**Q.** Which Ki does the source give for `COc1cc(NC(=O)Nc2cccc(CNC(=O)OCC3CCCCO3)c2)ccc1-c1cnco1` (stereo not shown) [Compound 154] here?
**A.** 0.01 to 50 nM

**Q.** `O=C(Nc1ccc(-c2cnco2)cc1)Nc1cccc([N+](=O)[O-])c1` [Compound 15] was tested. Which Ki did it give?
**A.** 1000 to 10000 nM

**Q.** For `Cc1cccc(NC(=O)Nc2ccc(-c3ocnc3C)cc2)c1` [Compound 77], which Ki is on record?
**A.** 51 to 1000 nM

**Q.** How did the Ki turn out when `COc1ccc(C)cc1NC(=O)Nc1ccc(-c2cnco2)cc1` [Compound 11] was run?
**A.** 1000 to 10000 nM

**Q.** Which Ki does the source give for `O=C(Nc1ccccc1)Nc1ccc(-c2cnco2)c(F)c1` [Compound 45] here?
**A.** 1000 to 10000 nM

**Q.** For `O=C(Nc1ccsc1)Nc1ccc(-c2cnco2)c(Cl)c1` [Compound 69], which Ki is on record?
**A.** 51 to 1000 nM

**Q.** With `O=C(Nc1ccc(-c2cnco2)cc1)Nc1ccc([N+](=O)[O-])cc1` [Compound 16] as the compound, how does the Ki read?
**A.** 1000 to 10000 nM
